From BindingDB's records for patent US20250368634 (SchroDinger, 2025) come the findings set out here.

Molecules are shown by their SMILES.

For the assay, the target named is T1, Son of sevenless homolog 1 (Homo sapiens, UniProt Q07889).
T1 sequence (Q07889 whole entry): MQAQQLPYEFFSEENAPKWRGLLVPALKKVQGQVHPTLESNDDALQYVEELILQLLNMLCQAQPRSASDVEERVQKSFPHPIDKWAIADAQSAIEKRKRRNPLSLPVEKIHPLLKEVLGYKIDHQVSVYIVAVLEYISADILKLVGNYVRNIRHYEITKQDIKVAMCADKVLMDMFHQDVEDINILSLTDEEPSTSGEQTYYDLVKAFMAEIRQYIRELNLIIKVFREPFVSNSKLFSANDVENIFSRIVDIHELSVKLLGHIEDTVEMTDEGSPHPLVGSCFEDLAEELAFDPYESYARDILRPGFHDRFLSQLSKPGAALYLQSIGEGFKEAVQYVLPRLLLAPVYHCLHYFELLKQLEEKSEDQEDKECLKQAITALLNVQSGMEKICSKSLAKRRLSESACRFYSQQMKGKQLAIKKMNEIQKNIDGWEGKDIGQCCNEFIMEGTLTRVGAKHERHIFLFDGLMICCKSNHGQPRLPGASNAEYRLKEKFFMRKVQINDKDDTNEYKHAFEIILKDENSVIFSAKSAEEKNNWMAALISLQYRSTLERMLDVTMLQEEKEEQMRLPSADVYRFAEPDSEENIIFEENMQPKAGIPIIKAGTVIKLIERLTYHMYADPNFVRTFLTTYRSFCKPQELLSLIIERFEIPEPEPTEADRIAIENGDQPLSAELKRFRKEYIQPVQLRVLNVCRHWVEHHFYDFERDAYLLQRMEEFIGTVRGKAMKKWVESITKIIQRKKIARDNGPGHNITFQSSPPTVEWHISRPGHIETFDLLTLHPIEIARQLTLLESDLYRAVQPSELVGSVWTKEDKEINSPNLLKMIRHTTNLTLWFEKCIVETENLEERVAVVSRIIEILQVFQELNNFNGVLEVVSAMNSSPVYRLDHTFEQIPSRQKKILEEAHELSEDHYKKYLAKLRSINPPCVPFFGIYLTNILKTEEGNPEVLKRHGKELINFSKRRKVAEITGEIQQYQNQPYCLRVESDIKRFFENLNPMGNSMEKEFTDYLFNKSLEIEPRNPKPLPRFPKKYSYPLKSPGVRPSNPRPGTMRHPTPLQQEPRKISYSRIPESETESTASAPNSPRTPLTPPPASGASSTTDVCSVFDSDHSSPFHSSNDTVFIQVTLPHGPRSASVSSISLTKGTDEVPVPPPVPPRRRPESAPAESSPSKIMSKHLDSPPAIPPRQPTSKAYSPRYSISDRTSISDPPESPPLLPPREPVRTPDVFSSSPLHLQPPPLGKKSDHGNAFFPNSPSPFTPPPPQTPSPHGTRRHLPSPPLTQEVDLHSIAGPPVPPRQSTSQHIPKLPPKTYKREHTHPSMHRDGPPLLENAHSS
The assay is described as follows: SOS1-KRas (G12C) FRET Assay. As to the method: Inhibition of the SOS1: KRAS interaction was measured using purified GST-tagged KRAS (res. 1-169, G12C, purified based on Hillig, et al., Proc Natl Acad Sci USA (2019); 116 (7): 2551-2560) and recombinant His10-SOS1 (res. 564-1049; purified based on Hillig, et al.). The final assay was performed at 20 uL with 0.5 nM SOS1 protein and 2.5 nM KRAS protein in a buffer of PBS, 0.1% BSA, 5 mM MgCl2, 0.0025% Igepal, 100 mM KF, 5 mM DTT in a white 384 square well OptiPlate (PerkinElmer, Cat. 6007290). A 2×KRAS working solution was prepared in an assay buffer containing 5 nM GST-KRAS G12C and 2 nM anti-GST-Eu (K) (Cisbio, Cat. 61GSTKLA) and pre-incubated for 15 minutes at 25° C. Compounds were serially diluted in 100% DMSO from 2 mM (positive control, compound I-13, PCT Publ. No. WO2018/115380) or 20 mM and then diluted 1:20 in assay buffer before incubation with a solution of SOS1 protein mixed 1:5 with anti-6His-XL665 FRET […] (Cisbio, Cat. 61HISXL) for 15 minutes at 25° C. before addition of 2×KRAS working solution. The final DMSO concentration is 0.5%. Plates were incubated at RT for 2 hrs before the FRET signal was measured using Envision at emission 665 nm and 615 nm.

As usually defined, the IC50 is the concentration needed to halve the response being measured. A lower IC50 goes with higher potency. In turn, `C[C@@H](NC(=O)c1cc(N2CCOCC2)c(F)cc1N[C@H]1[C@@H]2CN(C)C[C@@H]21)c1cccc(C(F)F)c1F` [US20250368634, Example 55] came in with an IC50 of 0.0198 µM.
